These results are taken from publication PMC7035970 (Cell chemical biology, 2019).

For assay [1], the system named is spontaneous M. tuberculosis JSF-2019 resistant mutant strains. It is filed as cell-based, Mycobacterium tuberculosis.
For assay [2], the system named is M. tuberculosis strain mc^24914 (inhA promoter c(−15)t). The assay can be described thus: microbe, parasite or virus in culture. As to conditions: for MIC: Mycobacterium tuberculosis. The assay is classed as cell-based, Mycobacterium tuberculosis.
The test system of assay [3] is M. tuberculosis strain DRM12 (katG S315T). The assay is classed as cell-based, Mycobacterium tuberculosis.
Assay [4] has as its system M. tuberculosis strain fgd1∷tn. Kind of assay: MIC versus F420H2 deficient strain fgd1∷tn. As to conditions: Mycobacterium tuberculosis. It is filed as cell-based, Mycobacterium tuberculosis.
In assay [5] the test system is M. tuberculosis strain JSF-Mtb-1 (fbiC F567S, inhA promoter c(−15)t). The assay is classed as cell-based, Mycobacterium tuberculosis.
The test system of assay [6] is M. tuberculosis strain ddn∷tn. Kind of assay: microbe, parasite or virus in culture. The following applies: for MIC: Mycobacterium tuberculosis. The assay is classed as cell-based, Mycobacterium tuberculosis.
In assay [7] the test system is M. tuberculosis clinical strains TDR31, TDR36, and TDR116. It is filed as cell-based, Mycobacterium tuberculosis.
In another assay the test system is M. tuberculosis H37Rv. The following applies: introduction, no reference given; cited from earlier work.

Values after ≈ are worked out from the molar mass of the structure shown.

`NNC(=O)c1ccncc1` [INH, reference compound]: the MIC in assay [1] is 0.16 µM (≈ 0.0219 µg/mL); in assay [2], 1.25 µM (≈ 0.171 µg/mL); in assay [3], more than 10 µM; in assay [4], 0.16 µM (≈ 0.0219 µg/mL); in assay [5], 1.25 µM (≈ 0.171 µg/mL); in assay [6], 0.16 µM (≈ 0.0219 µg/mL). Also, in assay [1], the “MIC shift versus the parental strain H37Rv” value stood at 8 x. Further, the “MIC shift, mc^24914 (inhA overexpression) versus H37Rv” value in assay [2] came out at 8 x. Further, the “MIC shift / loss of efficacy, DRM12 (KatG S315T) versus H37Rv” value (“MIC shift / loss of efficacy, DRM12” for short) in assay [3] was more than 62 fold.

In the case of `O=[N+]([O-])c1ccc(/C=N/Nc2nc(Nc3ccccc3)nc(Nc3ccccc3)n2)o1` [JSF-2019, (E)-6-(2-((5-nitrofuran-2-yl)methylene)hydrazinyl)-N2,N4-diphenyl-1,3,5-triazine-2,4-diamine], in assay [2], the “MIC shift, mc^24914 (inhA overexpression) versus H37Rv” value is on record as 8 x and the MIC stood at 0.63 µM (≈ 0.262 µg/mL). Besides, in assay [3], the MIC was determined as 0.078 µM (≈ 0.0325 µg/mL) and the “MIC shift / loss of efficacy, DRM12” value is “lack of an MIC shift”. The MIC in assay [4] was 1.3 µM (≈ 0.541 µg/mL). Also, in assay [5], the MIC was found to be 5.0 µM (≈ 2.08 µg/mL) and the “MIC change, JSF-Mtb-1 versus H37Rv” value is given as 64 x. In addition, in assay [6], the “loss of susceptibility, ddn∷tn versus wild type H37Rv” value (“loss … ddn∷tn versus wild type H37Rv” below) is reported as 8 x and the MIC turned out to be 0.63 µM (≈ 0.262 µg/mL). Also, the “activity versus clinical isolates with the KatG S315T mutation” value in assay [7] was “maintained its wild type strain activity”.

With `O=[N+]([O-])c1ccc(/C=N/Nc2nc(Nc3ccccc3)nc(N3CCOCC3)n2)o1` [JSF-2513, (E)-4-morpholino-6-(2-((5-nitrofuran-2-yl)methylene)hydrazineyl)-N-phenyl-1,3,5-triazin-2-amine], in assay [2], the “MIC shift, mc^24914 (inhA overexpression) versus H37Rv” value is “four-fold”. Further, the MIC worked out at 2.5 µM (≈ 1.03 µg/mL) in assay [2]; 0.63 µM (≈ 0.259 µg/mL) in assay [3]; 10 µM (≈ 4.1 µg/mL) in assay [4]; 20 µM (≈ 8.21 µg/mL) in assay [5]; 1.3 µM (≈ 0.534 µg/mL) in assay [6]. Besides, the “MIC shift / loss of efficacy, DRM12” value in assay [3] was “lack of an MIC shift”. Also, the “loss … ddn∷tn versus wild type H37Rv” value in assay [6] stood at 2 x.

On to `O=[N+]([O-])c1cn2c(n1)OC[C@@H](OCc1ccc(OC(F)(F)F)cc1)C2` [Pretomanid, reference compound], for which the MIC in assay [2] was 0.16 µM (≈ 0.0575 µg/mL); in assay [3] it was 0.039 µM (≈ 0.014 µg/mL); in assay [4], more than 40 µM; in assay [5], more than 40 µM. Further, the “loss … ddn∷tn versus wild type H37Rv” value in assay [6] is more than 1000 x. In addition, the “loss of potency from any one resistance mutation” value in the assay on M. tuberculosis H37Rv was not below 500 fold.

As to `C[C@]1(COc2ccc(N3CCC(Oc4ccc(OC(F)(F)F)cc4)CC3)cc2)Cn2cc([N+](=O)[O-])nc2O1` [delamanid], the “loss of potency from any one resistance mutation” value in the assay with M. tuberculosis H37Rv is on record as not below 500 fold.
